# Laboratory results as given in patent US20250017979A1, “METHODS AND COMPOSITIONS FOR IMPROVING IN VIVO SURVIVAL OF MIDBRAIN DOPAMINE NEURONS” (MEMORIAL SLOAN-KETTERING CANCER CENTER, priority 2022, published 2025).
# Key:
# [1] = tested on: rodent GSK3β homologs; conditions: cited from earlier work
# [2] = tested on: NURR1::H2B-GFP sorted neurons; assay: TNFα / adalimumab treatment of day 25 NURR1::H2B-GFP sorted dopamine neurons in vitro (immunofluorescence, western blot, qRT-PCR); assay type: cell-based, human; conditions: co-treatment with TNFα and adalimumab (10 μg/ml), 24 hours
# Experimental: hESC differentiation toward DA neurons. Midbrain dopaminergic neuron differentiation was performed using H9 hESCs, which include Nurr1::GFP. hESCs were grown on VTN-N (Thermo Fisher Scientific)-coated 6-well plates in E8-essential medium. Cells were maintained at 37° C., 5% CO2. hESCs were differentiated with an optimized protocol from a previously reported study (Kim et al., 2021, Cell Stem Cell February 4; 28 (2): 343-355.c5; Riessland et al., 2019, Cell Stem Cell. October 3; 25 (4): 514-530.c8). At day 25 of differentiation from hPSCs iCas9/NURR1::GFP hPSC lines containing sgRNA-pool libraries and sgRNA for dTomato and p53 hPSCs, GFP and dTomato expressed dopamine neurons were sorted using flow cytometry associated cell sorting (FACS). […] TNF-α neutralizing antibody was employed either to co-injection (1 mg/ml) or in vitro cultured dopamine neuron (10 μg/ml).
# [3] = tested on: CD marker sorted dopamine neurons; assay: Histology and stereology of dopamine neuron grafts at 6 months in 6-OHDA mice; assay type: in vivo, NSG mice
# Experimental: (§1) 6-OHDA mouse model. Briefly, adult female and male NSG mice (6-12 weeks) were anesthetized with 1%-2% isoflurane mixed in oxygen. 1 μL 6-OHDA (3 mg/ml, in saline with 1% ascorbic acid) was directly injected into the right side of substantial nigra (anterior-posterior [AP]=−2.9 mm, lateral [ML]=1.1 mm, vertical [DV]=4.5 mm, from dura) with rate of 0.5-1 μL per minute to generate unilateral toxin Parkinsonian mouse model. Animals with amphetamine-induced rotation at >6 rotations per min were selected for cell transplantation 4 weeks after 6-OHDA-lesion surgery. Animals were randomly grouped and transplanted with CD sorted neurons vs. CD sorted neurons+adalimumab vs. PBS (sham surgery control).
# Immunohistochemistry. Histology on tissues from mice was performed on frozen sections from xenografts. Mice were anesthetized with pentobarbital and transcardically perfused using heparinized (10 U/mL) PBS (pH 7.4), followed by 4% paraformaldehyde in PBS. The liquid is administered using peristaltic pump to control the rate of the solution delivery to the system. Tissues were post-fixed in ice cold 4% paraformaldehyde for 18 hours sharp and transferred to 30% sucrose until the tissue sink (typically 3-6 days post-), followed by snap freezing in O.C.T (Fisher Scientific, Pittsburgh, PA) or Neg-50 (Thermo Scientific). Brain tissues are all sectioned in 30 μm thick coronal sections using a cryostat and mounted onto a Superfrost plus microscope slides (Fisher Scientific). All the slides are stored at −80° C. for long-term until use. To process for immunolabeling, tissues are washed twice with 1×PBS, followed by permeabilization in 0.5% Triton X-100 in PBS for 10 minutes. Living cells in culture were directly fixed in 4% paraformaldehyde for 18 min, followed by 10 min permeabilization in 0.5% Triton X-100 in PBS. For labeling, cells or tissue sections were immunostained with primary antibodies of interest in 2% BSA in 0.25% Triton X-100 in PBS at 4° C. overnight. Next day appropriate Alexa Fluor secondary antibodies are conjugated at room temperature for 1 hr at a dilution of 1:1,000. Nuclei were counterstained by DAPI.
# Stereological analysis. For short-term survival studies, unbiased stercological counts of NURR1::H2B-GFP DA neurons within the striatum (AP+0.5, ML+/−1.8, DV −3.4 to −3.3 from dura) were performed using stereological principles and analyzed with StereoInvestigator software (Microbrightfield, Williston, VT, USA), as previously described. […] For each tissue section analyzed, section thickness was assessed in each sampling site and guard zones of 1 μm were used at the top and bottom of each section. […] For analysis, at least 2-8 sections were evaluated for analysis. […]
# [4] = tested on: amphetamine-induced rotation behaviors; assay: D-amphetamine induced rotation assay in unilateral 6-OHDA lesioned PD mouse model after grafting; assay type: in vivo, NSG mice
# Experimental: as §1
# d-amphetamine induced rotation behavior assays. Amphetamine-induced rotation tests were performed twice before transplantation, and 1, 2, 3, 4, 5, 6 months after transplantation. The mice were injected intraperitoneally with a d-amphetamine in saline (Sigma, 10 mg/kg). After 10 minutes, the rotation
# [5] = tested on: CD marker sorted dopamine neurons; assay: 1-month survival of CD49e-low/CD184-high sorted dopamine neuron grafts in striatum of NSG mice, co-injection, stereology; assay type: in vivo
# Experimental: hESC differentiation toward DA neurons. Midbrain dopaminergic neuron differentiation was performed using H9 hESCs, which include Nurr1::GFP. hESCs were grown on VTN-N (Thermo Fisher Scientific)-coated 6-well plates in E8-essential medium. Cells were maintained at 37° C., 5% CO2. hESCs were differentiated with an optimized protocol from a previously reported study (Kim et al., 2021, Cell Stem Cell February 4; 28 (2): 343-355.c5; Riessland et al., 2019, Cell Stem Cell. October 3; 25 (4): 514-530.c8). At day 25 of differentiation from hPSCs iCas9/NURR1::GFP hPSC lines containing sgRNA-pool libraries and sgRNA for dTomato and p53 hPSCs, GFP and dTomato expressed dopamine neurons were sorted using flow cytometry associated cell sorting (FACS). The sorted hPSCs were either injected into mice or cultured for subsequent experiments until use. Furthermore, double sorting approach with CD49e-low and CD184-high was applied to enrich post-mitotic dopamine neuron at day 25 differentiation derived from hPSC using FACS, and sorted cells were used for transplantation and in vitro culture. TNF-α neutralizing antibody was employed either to co-injection (1 mg/ml) or in vitro cultured dopamine neuron (10 μg/ml).
# Intracranial transplantation. hESCs-derived DA neurons that were sorted based on either NURR1::H2B-GFP or CD49e low and CD184 high were resuspended in 100,000+ cells/μL in neurobasal medium with 200 mM L-glutamine and 100 mM ascorbic acid (AA) transplantation medium (without human albumin or kedbumin 25%). […]
# Stereological analysis. For short-term survival studies, unbiased stercological counts of NURR1::H2B-GFP DA neurons within the striatum (AP+0.5, ML+/−1.8, DV −3.4 to −3.3 from dura) were performed using stereological principles and analyzed with StereoInvestigator software (Microbrightfield, Williston, VT, USA), as previously described. […] For each tissue section analyzed, section thickness was assessed in each sampling site and guard zones of 1 μm were used at the top and bottom of each section. […]
# [6] = 6 months old graft, TH+ population
# [7] = 6 months post transplantation, vs PBS co-injection
Compound,IC50 values against rodent GSK3β homologs [1],"TNFα-induced inductions of p53 and p53 downstream genes (p21, PUMA) [2]","fraction of CALB1 expressing A10 dopamine neuron subtype [3, 6]","proportion of ALDH1A1+ A9 mDA neuron subtype [3, 6]","overall graft size [3, 7]","total numbers of surviving dopamine neurons (TH) [3, 7]","functional recovery of amphetamine-induced rotation ([4]; 6 months post grafting, CD sorted neurons with or without adalimumab)","time course and completeness of functional rescue vs CD sorted neurons alone ([4]; adalimumab co-injected mDA neurons, 1-6 months)","Stereological counts of NURR1::GFP+ cells ([5]; 1 month post grafting, mean and S.E.M, n=5, p=0.01 vs PBS)","volume of the graft ([5]; 1 month post grafting, per 100,000 cells, mean, n=5, p=0.0085) [mm^3]","survival of CD marker sorted dopamine neurons in vivo post-transplantation ([5]; co-injection (1 mg/ml), vs PBS)"
"Cc1c[nH]c(-c2cnc(NCCNc3ccc(C#N)cn3)nc2-c2ccc(Cl)cc2Cl)n1 [CHIR99021, 6-(2-(4-(2,4-dichlorophenyl)-5-(4-methyl-1H-imidazol-2-yl)pyrimidin-2-ylamino)ethylamino) nicotinonitrile]",nanomolar,,,,,,,,,,
adalimumab,,abolished,without affecting,significant increase,significantly increased,significantly increased,Robust functional recovery,trend towards an earlier and more complete functional rescue,"12,423 (mean)+1,859 (S.E.M) per 100,000 cells injected",0.1175,significantly improved
